How the values were obtained:
Type in all cases: physicochemical
[1] = Three month stability and forced degradation study: visual observations of stored solids
Method: (§1) […] The samples were prepared in duplicate with an offset of 2 weeks. Each replicate was stored in a different container.
(§2) Replicate 1 was charged in an open HPLC vial that was placed in a sealed scintillation vial containing a saturated solution of the relevant inorganic salt (Table 2). These samples were analysed by HPLC, 1H NMR, XRPD and Polarized Light Microscopy (PLM) at 4, 8, and 12 week time points.
(§3) Replicate 2 was stored in sealed box with a recipient containing a saturated solution of the relevant inorganic salt (Table 2). These samples were analysed by HPLC at 2, 6, 10 and 12 week time points. Samples at 25° C./0% RH were stored in a sealed box containing a desiccant agent (P2O5).

[2] = Three month stability and forced degradation study: particle morphology by polarised light microscopy (PLM); conditions: Replicate 1
Method: Samples were studied on a Leica LM/DM polarised light microscope with a digital video camera for image capture. A small amount of each sample was placed on a glass slide, 15 mounted in immersion oil and covered with a glass slip, the individual particles being separated as well as possible. The sample was viewed with appropriate magnification and partially polarised light, coupled to a λ false-color filter.
as §1, §2

[3] = Three month stability and forced degradation study: HPLC purity of stored solids; conditions: for Known Impurity* (%) (nicotinamide, RRT = 1.73 min) / Purity (%): HPLC
Method: Purity analysis was performed on an Agilent HP1100 series system equipped with a diode array detector and using ChemStation software vB.04.03 using the method detailed below in Table 1.
as §1, §2, §3

[4] = Three month stability and forced degradation study: solid form by XRPD after storage; conditions: for XRPD: Replicate 1
Method: X-Ray Powder Diffraction patterns were collected on a Bruker D8 diffractometer using Cu Kα radiation (40 kV, 40 mA), θ-2θ goniometer, and divergence of V4 and receiving slits, a Ge monochromator and a Lynxeye detector. The instrument is performance checked using a certified Corundum standard (NIST 1976). The software used for data collection was Diffrac Plus XRD Commander v2.6.1 and the data were analysed and presented using Diffrac Plus EVA v15.0.0.0.
Samples were run under ambient conditions as flat plate specimens using powder as received. The sample was gently packed into a cavity cut into polished, zero-background (510) silicon wafer. The sample was rotated in its own plane during analysis. The details of the data collection are: • Angular range: 2 to 42° 2θ • Step size: 0.05° 2θ • Collection time: 0.5 s/step HPLC
as §1, §2

[5] = Dynamic vapor sorption (DVS) of amorphous NMN; conditions: FIG. 7
Description: When a sample of amorphous NMN is exposed to atmospheric humidity, the sample goes through phases. […] The amorphous sample is hygroscopic until it deliquesces and starts crystallizing.

[6] = solid stored 25° C., 0% RH, 4 weeks, Replicate 1
[7] = solid stored 25° C., 0% RH, 8 weeks, Replicate 1
[8] = solid stored 25° C., 0% RH, 12 weeks, Replicate 1
[9] = solid stored 25° C., 60% RH, 2 weeks, Replicate 2
[10] = solid stored 25° C., 60% RH, 4 weeks, Replicate 1
[11] = solid stored 25° C., 60% RH, 6 weeks, Replicate 2
[12] = solid stored 25° C., 60% RH, 8 weeks, Replicate 1
[13] = solid stored 25° C., 60% RH, 10 weeks, Replicate 2
[14] = solid stored 25° C., 60% RH, 12 weeks, Replicate 1
[15] = solid stored 25° C., 60% RH, 12 weeks, Replicate 2
[16] = solid stored 25° C., 97% RH, 2 weeks, Replicate 2
[17] = solid stored 25° C., 97% RH, 4 weeks, Replicate 1
[18] = solid stored 25° C., 97% RH, 6 weeks, Replicate 2
[19] = solid stored 25° C., 97% RH, 10 weeks, Replicate 2
[20] = solid stored 25° C., 97% RH, 12 weeks, Replicate 2
[21] = solid stored 40° C., 75% RH, 2 weeks, Replicate 2
[22] = solid stored 40° C., 75% RH, 4 weeks, Replicate 1
[23] = solid stored 40° C., 75% RH, 6 weeks, Replicate 2
[24] = solid stored 40° C., 75% RH, 8 weeks, Replicate 1
[25] = solid stored 40° C., 75% RH, 10 weeks, Replicate 2
[26] = solid stored 40° C., 75% RH, 12 weeks, Replicate 2
[27] = solid stored 25° C., 0% RH, 4 weeks
[28] = solid stored 25° C., 0% RH, 8 weeks
[29] = solid stored 25° C., 0% RH, 12 weeks
[30] = solid stored 25° C., 60% RH, 4 weeks
[31] = solid stored 25° C., 60% RH, 12 weeks
[32] = solid stored 25° C., 97% RH, 4 weeks
[33] = solid stored 40° C., 75% RH, 4 weeks
[34] = solid stored 25° C., 0% RH, 12 weeks, Replicate 1, listed as Amorphous material
[35] = solid stored 40° C., 75% RH, 12 weeks, Replicate 2, listed as amorphous material
[36] = t = 0, baseline of the stability study, listed as J07086

Compound: NC(=O)c1ccc[n+]([C@@H]2O[C@H](COP(=O)([O-])O)[C@@H](O)[C@H]2O)c1 [Form J07087, β-nicotinamide mononucleotide, reference compound]
- Observations [1, 6]: white solid
- Observations [1, 7]: white solid
- Observations [1, 8]: white solid
- Observations [1, 9]: light yellow solid,
- Observations [1, 10]: brown solid
- Observations [1, 11]: light brown,
- Observations [1, 12]: brown solid,
- Observations [1, 13]: light brown,
- Observations [1, 14]: brown solid,
- Observations [1, 15]: light brown,
- Observations [1, 16]: white compacted
- Observations [1, 17]: white solid,
- Observations [1, 18]: white solid,
- Observations ([1]; solid stored 25° C., 97% RH, 8 weeks, Replicate 1): partially
- Observations [1, 19]: white solid,
- Observations ([1]; solid stored 25° C., 97% RH, 12 weeks, Replicate 1): deliquesced.
- Observations [1, 20]: white solid,
- Observations [1, 21]: brown compacted
- Observations [1, 22]: brown
- Observations [1, 23]: dark brown solid
- Observations [1, 24]: brown
- Observations [1, 25]: black solid
- Observations ([1]; solid stored 40° C., 75% RH, 12 weeks, Replicate 1): black solid,
- Observations [1, 26]: black solid,
- PLM [2, 27]: Unchanged
- PLM [2, 28]: Unchanged
- PLM [2, 29]: Unchanged
- PLM [2, 30]: acicular
- PLM [2, 31]: acicular
- PLM [2, 32]: acicular
- PLM [2, 33]: acicular
- Known Impurity* (%) (nicotinamide, RRT = 1.73 min) [3, 6]: 1.81%
- Purity (%) [3, 6]: 96.9%
- Known Impurity* (%) (nicotinamide, RRT = 1.73 min) [3, 7]: 2.44%
- Purity (%) [3, 7]: 95.8%
- Known Impurity* (%) (nicotinamide, RRT = 1.73 min) [3, 8]: 2.81%
- Purity (%) [3, 8]: 95.0%
- Known Impurity* (%) (nicotinamide, RRT = 1.73 min) [3, 34]: 2.8%
- Purity (%) [3, 34]: 95.5%
- Known Impurity* (%) (nicotinamide, RRT = 1.73 min) [3, 9]: 2.14%
- Purity (%) [3, 9]: 97.4%
- Known Impurity* (%) (nicotinamide, RRT = 1.73 min) [3, 10]: 2.13%
- Purity (%) [3, 10]: 96.9%
- Known Impurity* (%) (nicotinamide, RRT = 1.73 min) [3, 11]: 2.06%
- Purity (%) [3, 11]: 97.4%
- Known Impurity* (%) (nicotinamide, RRT = 1.73 min) [3, 12]: 3.46%
- Purity (%) [3, 12]: 95.2%
- Known Impurity* (%) (nicotinamide, RRT = 1.73 min) [3, 13]: 2.92%
- Purity (%) [3, 13]: 96.0%
- Known Impurity* (%) (nicotinamide, RRT = 1.73 min) [3, 14]: 3.46%
- Purity (%) [3, 14]: 95.7%
- Known Impurity* (%) (nicotinamide, RRT = 1.73 min) [3, 15]: 2.32%
- Purity (%) [3, 15]: 96.2%
- Known Impurity* (%) (nicotinamide, RRT = 1.73 min) [3, 16]: 1.79%
- Purity (%) [3, 16]: 97.8%
- Known Impurity* (%) (nicotinamide, RRT = 1.73 min) [3, 17]: 2.44%
- Purity (%) [3, 17]: 97.1%
- Known Impurity* (%) (nicotinamide, RRT = 1.73 min) [3, 18]: 3.01%
- Purity (%) [3, 18]: 96.5%
- Known Impurity* (%) (nicotinamide, RRT = 1.73 min) [3, 19]: 4.39%
- Purity (%) [3, 19]: 94.9%
- Known Impurity* (%) (nicotinamide, RRT = 1.73 min) [3, 20]: 7.02%
- Purity (%) [3, 20]: 91.5%
- Known Impurity* (%) (nicotinamide, RRT = 1.73 min) [3, 21]: 4.61%
- Purity (%) [3, 21]: 94.6%
- Known Impurity* (%) (nicotinamide, RRT = 1.73 min) [3, 22]: 6.70%
- Purity (%) [3, 22]: 91.3%
- Known Impurity* (%) (nicotinamide, RRT = 1.73 min) [3, 23]: 8.22%
- Purity (%) [3, 23]: 88.0%
- Known Impurity* (%) (nicotinamide, RRT = 1.73 min) [3, 24]: 14.23%
- Purity (%) [3, 24]: 76.9%
- Known Impurity* (%) (nicotinamide, RRT = 1.73 min) [3, 25]: 16.18%
- Purity (%) [3, 25]: 75.9%
- Known Impurity* (%) (nicotinamide, RRT = 1.73 min) [3, 26]: 20.60%
- Purity (%) [3, 26]: ~67.5^$ %
- Known Impurity* (%) (nicotinamide, RRT = 1.73 min) [3, 35]: 20.6%
- Purity (%) [3, 35]: 67.5%
- HPLC purity profile, Area % of main peak (RRT 1.00) [3, 36]: 98.56 Area %
- HPLC purity profile, Area % of peak at RRT 1.76 / 1.74 (nicotinamide) [3, 36]: 0.87 Area %
- Purity ([3]; time 0, listed as Amorphous material): 98.2%
- solid form and particle morphology after storage ([4]; 12 weeks at 25° C., 0% RH): remained unchanged
- XRPD [4, 27]: Unchanged
- XRPD [4, 28]: Unchanged
- XRPD [4, 29]: Unchanged
- XRPD [4, 30]: Form 1
- XRPD ([4]; solid stored 25° C., 60% RH, 8 weeks): Form 1
- XRPD [4, 31]: Form 1
- XRPD [4, 32]: Form 1
- XRPD [4, 33]: Form 1
- XRPD ([4]; solid stored 40° C., 75% RH, 8 weeks): Form 1
- XRPD ([4]; solid stored 40° C., 75% RH, 12 weeks): Form 1
- solid form on storage under humidity ([4]; stored under 25% or greater relative humidity, gives Form 1 with acicular morphology): crystallized
- reversible mass pick up (DVS) ([5]; once crystallised, double cycle): up to 9 % w/w
- behaviour on exposure to atmospheric humidity (DVS change in mass plot) ([5]; until it deliquesces and starts crystallizing): hygroscopic
